As usually defined, the logP is the decadic logarithm of the partition coefficient of the neutral form, usually between octanol and water. A high value points to a more lipophilic compound.

113 compounds from the OPERA property sets (Mansouri et al. 2018) can be followed below.

Where a SMILES comes first, the peptide text is derived from it.

On to `O=C(CCN1CCC(O)(c2ccc(Cl)cc2)CC1)c1ccc(F)cc1`, for which the logP is 3.24. As for `COC1CC2(C)C(O)C(F)CC2C2CCc3cc(O)ccc3C12` (stereo not drawn), the figure is 2.35; as for `COc1ccc(CCOC(=O)C(N)Cc2ccc(O)c(O)c2)cc1` (stereo not drawn), 1.69. As for `CCN(CCO)Cc1cccc(COc2ccccc2)c1`, the logP turned out to be 3.04. As for `CNC1CC2CC1c1ccccc12` (stereo not drawn), the figure is 2.32; as for `CCOP(N)(=O)ON=C(C#N)c1ccccc1` (stereo not drawn), 0.72; as for `CCNCc1ccccc1`, 1.82.

In the case of `CCCN(CCC)CC(=O)NC1c2ccccc2-c2ccccc21`, the logP was found to be 4.61. As for `Oc1ccc(C2(O)CCN(CCCSc3ccc(F)cc3)CC2)cc1`, the figure is 4.17. As for `Nc1c([N+](=O)[O-])ccc2ncccc12`, the figure is 1.61; as for `COc1cc(Cc2cnc(N)nc2N)ccc1C(C)C`, 3.14. As for `Clc1ccc(Cl)c(-c2ccccc2)c1`, the figure is 5.1; as for `CCCc1ccc(CC(=O)O)cc1`, 3; as for `C=C1C(=O)O[C@H]2[C@H]1[C@H](OC(=O)/C(C)=C\C)CC(=C)[C@@H]1[C@H](O)[C@H]3O[C@@]3(C)[C@@]12O`, 1.69. In turn, `O=C(O)c1cc(-c2ccc(F)cc2F)ccc1O` gave a logP of 4.44. As for `O=C(O)CCC(=O)c1ccccc1`, the figure is 1.3; as for `Cc1ccc(S(=O)(=O)NC(=O)NC2CCCCC2)cc1`, 2.9; as for `CC1CCC(c2ccccc2)(N2CCCCC2)CC1` (stereo not drawn), 5.66. As for `O=C1c2ccccc2C(=O)C1c1ccc(Cl)cc1`, the figure is 3.61. As for `O=C(COc1ccc(OCCNCC(O)COc2ccccc2)cc1)NCCCO` (stereo not drawn), the figure is 0.5; as for `O=c1[nH]c(-c2ccccc2)nc2nn[nH]c12`, 1.27; as for `O=C(COc1ccc(OCCNCC(O)COc2ccccc2)cc1)N1CCCCC1` (stereo not drawn), 2.6. Turning to `CCCCCc1cc(OCCCCN)c2c(c1)OC(C)(C)C1CC=C(C)CC21` (stereo not drawn), the logP worked out at 8.38. Consider `Clc1ccc(-c2ccccc2Cl)cc1`, for which the log partition coefficient (logP) turned out to be 5.09. On to `OCc1ccccc1C(c1ccc(O)cc1)c1ccc(O)cc1`, for which the lipophilicity (logP) is 3.27.

In turn, `CCNCC(=O)Nc1c(C)cccc1C` came in with a logP of 1.32. As for `C=CC(=O)OCCOCCOCCOC(=O)C=C`, the figure is 0.96; as for `CC(=O)NCC(=O)N[C@H](C(N)=O)C(C)C` (Ac-Gly-Val-NH2), -1.33.

Regarding `OC(CNCCc1ccncc1)COc1ccc(-c2ncc(-c3cccs3)[nH]2)cc1` (stereo not drawn), the logP amounted to 2.25.

`CCCCc1ccc(N2C(N)=NC(N)=NC2(C)C)cc1` came in with a logP of 2.66. `Oc1ccc2c(c1)CCCC2` returned a logP of 2.9. On to `Nc1ccn(C2OC(CCl)C(O)C2O)c(=O)n1` (stereo not drawn), for which the log partition coefficient (logP) is -1.05. As for `CSC(C)=NOC(=O)N(C)SN(C)C(C)=O`, the figure is 1.3. In turn, `O=C1CN=C(c2ccccc2)c2cc(Br)ccc2N1` returned a logP of 3.11.

Take `Cc1cccc(C)c1NC(=O)CCCCCN`: the logP came out at 1.29. `N[C@@H](Cc1cnccn1)C(=O)O` yielded a logP of -2.79. As for `CCCOc1cc(Cc2cnc(N)nc2N)ccc1OC`, the figure is 1.88. `C=Cc1ccc(C(=O)O)cc1` yielded a log partition coefficient (logP) of 2.18. In turn, `COc1ncnc2c1ncn2C1OC(CO)C(OC(=O)Cc2ccccc2)C1OC(=O)Cc1ccccc1` (stereo not drawn) displayed a logP of 3.48. The compound `COc1cc(S(C)=O)ccc1-c1nc2ncccc2[nH]1` (stereo not drawn) displayed a logP of 1.18. For the compound `CCCCOCC(O)Cn1ccnc1[N+](=O)[O-]` (stereo not drawn), the lipophilicity (logP) worked out at 1.11.

`CCCCNC(=O)n1cc(F)c(=O)[nH]c1=O` registered a logP of 1.44. As for `CC1=CC(=O)C(C(C)C)=CC1=O`, the figure is 2.2; as for `CCCCCCC(C)(C)c1cc(O)c2c(c1)OC(C)(C)C1CCC(CO)=CC21` (stereo not drawn), 7.83; as for `CCc1ccc(C)cc1`, 3.63. As for `C[C@H]1O[C@@H](O[C@H]2CC[C@@]3(C)[C@H](CC[C@@H]4[C@@H]3CC[C@]3(C)[C@@H](C5=CC(=O)OC5)[C@@H](O)C[C@]43O)C2)C[C@H](O)[C@@H]1O`, the figure is 1.77; as for `CCOc1ccc(NC(=O)CN2CCCCC2)cc1`, 2.82. Compound `CCCCOC(=O)c1cc(=O)[nH]c(=O)[nH]1` showed a logP of 1.06. As for `CC(C)c1cccc(C(C)C)c1NC1=NCCN1`, the figure is 3.04. As for `Cc1nc(Cl)c(C#N)cc1-c1ccccc1`, the figure is 3.24; as for `C=CC1CCC2OC2C1` (stereo not drawn), 2.08; as for `O=C(c1c(F)cccc1F)c1ccc2n1CCC2C(=O)O` (stereo not drawn), 2.47. As for `O=S(=O)(O)c1cccc2c(O)cccc12`, the figure is -0.17; as for `O=C(O)Cc1ccc2c(c1)C(=O)c1ccccc1CS2`, 2.97; as for `Cc1cc(C)c(O)c(C)c1`, 2.73. Consider `CCOC(=O)C(C(=O)OC(C)C)=C1SCCS1`, for which the logP stood at 2.9.

Take `O=C(c1ccc2n1CCC2C(=O)O)C1CCC1` (stereo not drawn): the logP turned out to be 2.41. Turning to `O=C(CN1CCCCC1)NCc1ccccc1`, the logP worked out at 2.27. As for `CCN(CC)CCC(=O)Nc1c(C)cccc1C`, the figure is 2.21; as for `CCNC(=O)c1cc(Cl)cc(C)c1O`, 3.55. As for `COc1ccc(Cc2cnc(N)nc2N)cc1N(C)C`, the figure is 1.68; as for `CC(=Cc1ccccc1)C(=O)O`, 2.6; as for `c1ccc2cc3cc4ccccc4cc3cc2c1`, 5.76. As for `O=c1ccn([C@H]2CC[C@@H](CO)O2)c(=O)[nH]1`, the figure is -1; as for `C#CC1(O)CCC2C3CCc4cc(O)ccc4C3C(CC)CC21C` (stereo not drawn), 4.28. In turn, `CCN1CC(C(O)C(CC2CCCCC2)NC(=O)C(Cc2cnc[nH]2)NC(=O)C(CC(=O)N(C)CCOC)Cc2ccccc2)OC1=O` (stereo not drawn) displayed a lipophilicity (logP) of 2.45.

The compound `C=C(C)C(=O)OCC(C)(C)COC(=O)C(=C)C` displayed a logP of 2.79. As for `Clc1ccc(OCc2cccc(CN3CCOCC3)c2)cc1`, the figure is 3.52; as for `CCC1(c2ccccc2)C(=O)NC(=O)N=C1OC(C)C` (stereo not drawn), 2.22. As for `CC(=O)Nc1ccccc1C(N)=O`, the figure is 0.32; as for `Cc1cnc([N+](=O)[O-])n1CCO`, 0.18; as for `OCc1cc(Br)ccc1O`, 1.72. As for `CCN(CC)C(C)CC(=O)Nc1c(C)cccc1C` (stereo not drawn), the figure is 2.63; as for `CCN1CC(C(O)C(CC2CCCCC2)NC(=O)C(Cc2cnc[nH]2)NC(=O)C(Cc2ccc(OC)cc2)NC(=O)N(C)CC(O)CO)OC1=O` (stereo not drawn), 1.42; as for `c1ccc(-c2nc3ccccc3o2)cc1`, 3.67. `O=C(NC1CCCCC1)NS(=O)(=O)c1ccc(Cl)cc1` registered a log partition coefficient (logP) of 3.38. As for `CC(=O)O[C@H]1C[C@H](O[C@H]2[C@@H](O)C[C@H](O[C@H]3[C@@H](O)C[C@H](O[C@H]4CC[C@@]5(C)[C@H](CC[C@@H]6[C@@H]5C[C@@H](O)[C@]5(C)[C@@H](C7=CC(=O)OC7)CC[C@]65O)C4)O[C@@H]3C)O[C@@H]2C)O[C@H](C)[C@H]1O`, the figure is 1.97; as for `CCNC(=O)NS(=O)(=O)c1ccc(C)cc1`, 1.14. As for `CCCCCCCCCCCCCc1ccc(O)cc1`, the figure is 8.2; as for `COc1ccc(NC(=O)CN2CCCCC2)cc1`, 2.52. As for `c1ccc(-c2ccc(-c3ccccc3)cc2)cc1`, the figure is 6.03.

The compound `CCN(CC)CCCCCC(=O)Nc1c(C)cccc1C` had a log partition coefficient (logP) of 2.95. As for `OCc1ccc(C(O)(Cn2ccnc2)c2ccc(-c3ccncc3)cc2)cc1` (stereo not drawn), the figure is 2.4; as for `CC(=O)OC1CC2C(CCC3CC(OC4CC(O)C(OC5CC(O)C(OC6CC(O)C(O)C(C)O6)C(C)O5)C(C)O4)CCC32C)C2(O)CCC(C3=CC(=O)OC3)C12C` (stereo not drawn), 2.29; as for `N#CSO`, 0.32. As for `CCOC(=O)C(C(=O)OCC)=C1SCCS1`, the figure is 2.45. As for `CCC(C(=O)OCc1ccc(C)cc1)C(COC(=O)c1ccccc1)Cc1cncn1C` (stereo not drawn), the figure is 4.85; as for `Oc1cccc2c1CCCC2`, 2.95.

Regarding `CCOC(=O)CC[C@H](NC(=O)c1ccc(N(C)Cc2cnc3nc(N)nc(N)c3n2)cc1)C(=O)OCC`, the logP was 0.98.

The compound `CCCCCc1cc(O)c2c(c1)OC(C)(C)[C@@H]1CCC(CO)=C[C@@H]21` returned a logP of 5.33. As for `CC(C)Nc1nc(Cl)nc(NC2CC2)n1`, the figure is 3.06; as for `C=C1C(=O)OC2CC3(C)CCCC(=C)C3CC12` (stereo not drawn), 3.42.

For the compound `CC(=O)c1ccc(S(=O)(=O)NC(=O)NC2CCCCC2)cc1`, the logP is 2.44. As for `CCOCc1ccccc1`, the figure is 2.16; as for `CCCCNC(=O)c1cc(Br)cc(C)c1O`, 4.21. As for `CCOC(=O)Cn1nnc2ccccc21`, the figure is 1.3; as for `COc1cc(C)c(/C=C/C(C)=C/C=C/C(C)=C/C(=O)O)c(C)c1C`, 6.4; as for `O=[N+]([O-])c1cnc(C=Cc2ccc3c(c2)OCO3)n1CCO`, 2.03. Take `CCOC(=O)c1ccc(S(N)(=O)=O)cc1`: the logP came out at 1.17. As for `C=C1CCC2C(C1)c1c(OCc3ccc(-c4ccccc4)cc3)cc(CCCCC)cc1OC2(C)C` (stereo not drawn), the figure is 11.3; as for `CCCCCCC(C)=NNC(=N)N`, 2.08; as for `COc1ccc(CCNCC(O)COc2ccc(-c3nc(C(C)=O)c(C)[nH]3)cc2)cc1OC` (stereo not drawn), 2.14. As for `CN(C)CCC(c1ccccc1)c1ccc(C(C)(C)C)cc1` (stereo not drawn), the figure is 5.1.

In the case of `NS(=O)(=O)c1nc2c(Cl)cc(Cl)cc2s1`, the logP was determined as 2.6. The compound `CCn1c(=O)n(C)c(=O)c2[nH]cnc21` yielded a logP of 0.52. As for `CCCOc1ccc(CC(=O)O)cc1`, the figure is 2.31. As for `Cc1ccc(S(=O)(=O)NC(=O)Nc2ccccc2)cc1`, the figure is 3.11. As for `Cc1cc(Br)cc(C(N)=O)c1O`, the figure is 2.76; as for `CCCCCCCCCCCCCCCCCCCC(=O)O`, 9.29. Consider `O=C(O)c1ccc(O)c(Cl)c1`, for which the logP came to 2.41. As for `CCOC(=O)CC(NC(=O)CCCCSc1ncnc2nc[nH]c12)C(=O)OCC` (stereo not drawn), the figure is 1.33. Compound `CCCCCCCCCCCC(=O)C(C)(C)C(=O)N(C)c1c(OC)cc(OC)cc1OC` yielded a logP of 6.67. As for `CCN1CC(C(O)C(CC2CCCCC2)NC(=O)C(Cc2cnc[nH]2)NC(=O)C(Cc2ccc(OC)cc2)NC(=O)N(C)CCOCOCCOC)OC1=O` (stereo not drawn), the figure is 2.03.
